Experimental data taken from patent US20130315843A1, “COMPOSITION FOR REDUCTION OF TRPA1 AND TRPV1 SENSATIONS” (priority 2012, published 2013).

Target: human TRPA1 (Homo sapiens, UniProt O75762)
Experiment: FLIPR Ca2+ assay, reduction of hydrogen peroxide activation of TRPA1
Format: cell-based
Parameters: expressed in transfected cells
Conditions: 100 μM antagonist vs 500 μM hydrogen peroxide
Procedure: After centrifugation, a pellet of cells was formed in the bottom of the tube separating them from the supernatant solution.
The pelleted cells were re-suspended in 10 ml assay buffer and 90 μl aliquots (˜50,000 cells) per well delivered to a 96-well assay plate containing 10 μl of test compounds ([…]) or buffer control and incubated at room temperature for 30 minutes.

human TRPA1, sequence (O75762 whole entry): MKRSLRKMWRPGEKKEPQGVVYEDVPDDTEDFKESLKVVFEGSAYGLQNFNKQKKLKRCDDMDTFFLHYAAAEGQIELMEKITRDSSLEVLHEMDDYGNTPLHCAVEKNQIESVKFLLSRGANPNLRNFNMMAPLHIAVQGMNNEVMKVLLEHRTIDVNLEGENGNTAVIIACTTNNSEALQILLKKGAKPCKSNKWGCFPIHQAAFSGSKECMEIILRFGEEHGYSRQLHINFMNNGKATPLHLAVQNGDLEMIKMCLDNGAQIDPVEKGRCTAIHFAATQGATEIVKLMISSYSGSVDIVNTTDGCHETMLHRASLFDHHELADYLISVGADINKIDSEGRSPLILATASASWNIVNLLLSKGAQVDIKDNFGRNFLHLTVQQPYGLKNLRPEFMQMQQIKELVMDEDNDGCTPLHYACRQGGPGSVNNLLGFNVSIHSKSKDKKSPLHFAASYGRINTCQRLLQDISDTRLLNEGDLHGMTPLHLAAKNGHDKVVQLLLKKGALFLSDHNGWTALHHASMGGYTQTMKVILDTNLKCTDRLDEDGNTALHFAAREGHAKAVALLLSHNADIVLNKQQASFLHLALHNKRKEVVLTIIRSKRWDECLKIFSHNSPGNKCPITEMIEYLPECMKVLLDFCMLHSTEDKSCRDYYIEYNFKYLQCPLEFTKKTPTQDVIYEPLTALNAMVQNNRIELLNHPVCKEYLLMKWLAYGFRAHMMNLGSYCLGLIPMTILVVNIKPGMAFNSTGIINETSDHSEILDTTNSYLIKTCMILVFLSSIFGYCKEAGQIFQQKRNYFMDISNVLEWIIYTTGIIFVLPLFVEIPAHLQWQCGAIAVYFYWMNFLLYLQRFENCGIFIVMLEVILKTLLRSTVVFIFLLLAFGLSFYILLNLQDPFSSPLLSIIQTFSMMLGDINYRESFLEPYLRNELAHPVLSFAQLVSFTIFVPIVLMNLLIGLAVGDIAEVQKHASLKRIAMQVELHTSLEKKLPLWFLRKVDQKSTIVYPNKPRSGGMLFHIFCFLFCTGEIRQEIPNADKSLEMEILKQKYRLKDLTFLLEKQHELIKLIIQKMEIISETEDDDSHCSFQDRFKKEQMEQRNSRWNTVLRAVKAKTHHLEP

| SMILES | Block of hydrogen peroxide activation of TRPA1 |
| --- | --- |
| CC1CCC(=O)C1=O (stereo not shown) [3-methyl-1,2-cyclopentanedione] | BLOCK ONLY H2O2/TRPA1 |
| CC(=O)c1ccc(C)cc1 [4′-methylacetophenone] | BLOCK ONLY H2O2/TRPA1 |
| CC(C)CCCC(=O)O [5-methylhexanoic acid] | BLOCK ONLY H2O2/TRPA1 |
| CCCCCC(=O)CCCCC [6-undecanone] | BLOCK ONLY H2O2/TRPA1 |
| C=C(C)c1ccc(C)cc1 [Alpha-p-dimethylstyrene] | BLOCK ONLY H2O2/TRPA1 |
| COc1cc(C(=O)O)ccc1O [Vanillic Acid] | BLOCK ONLY H2O2/TRPA1 |
| C=C(C)OC(C)=O [acetic acid isopropenyl ester] | BLOCK ONLY H2O2/TRPA1 |
| CC(=O)C(C)O (stereo not shown) [acetoin] | BLOCK ONLY H2O2/TRPA1 |

Same assay, conditions: 400 μM antagonist vs 500 μM hydrogen peroxide

| SMILES | Block of hydrogen peroxide activation of TRPA1 |
| --- | --- |
| C[C@H]1CC[C@]2(O1)C(C)(C)CCC[C@]2(C)O | BLOCK ONLY H2O2/TRPA1 |
| CCCC1CC(=O)C=C(C)C1 (stereo not shown) | BLOCK ONLY H2O2/TRPA1 |
| c1ccc(CCCC2CCCO2)cc1 (stereo not shown) [2-(3-Phenylpropyl) tetrahydrofuran] | BLOCK ONLY H2O2/TRPA1 |
| CC1CC(O)CC(C)(C)C1 (stereo not shown) [3,3,5-Trimethylcyclohexanol] | BLOCK ONLY H2O2/TRPA1 |
| CCCCCCCC1CC(C)OC1=O (stereo not shown) [3-Heptyldihydro-5-methyl-2(3H)-furanone] | BLOCK ONLY H2O2/TRPA1 |
| CCCC(CCOC(C)=O)SC(C)=O (stereo not shown) [3-acetylsulfanylhexyl acetate] | BLOCK ONLY H2O2/TRPA1 |
| CCCCC(=O)OC1CC2CCC1(C)C2(C)C (stereo not shown) [Bornyl Valerate] | BLOCK ONLY H2O2/TRPA1 |
| CC(=O)OCCC(C)CCC=C(C)C (stereo not shown) [Citronellyl acetate] | BLOCK ONLY H2O2/TRPA1 |
| COC(=O)c1ccccc1OC [Methyl 2-methoxy-benzoate] | BLOCK ONLY H2O2/TRPA1 |
| COC(=O)CCCc1ccccc1 [Methyl-4-phenyl butyrate] | BLOCK ONLY H2O2/TRPA1 |
| CC(O)C(=O)NCCO (stereo not shown) [N-(2-Hydroxyethyl) lactamide] | BLOCK ONLY H2O2/TRPA1 |

Same assay, conditions: antagonist 100 μM against 200 μM hydrogen peroxide; read-out: % Reduction of Hydrogen Peroxide TRPA1 Activation

| SMILES | inhibition at 100 µM [%] |
| --- | --- |
| COc1cc(C(=O)O)ccc1O [Vanillic Acid] | 19 |

Same assay, conditions: antagonist 400 μM against 200 μM hydrogen peroxide

| SMILES | % Reduction of Hydrogen Peroxide TRPA1 Activation [%] |
| --- | --- |
| C[C@H]1CC[C@]2(O1)C(C)(C)CCC[C@]2(C)O [Hydroxydihydrotheaspirane, 1-Oxaspiro[4.5]decan-6-ol, 2,6,10,10-tetramethyl-, (2S,5S,6S)-6-] | 57 |
| COC(=O)CCCc1ccccc1 [Methyl-4-phenyl butyrate] | 60 |

Same assay, conditions: antagonist 400 μM against 200 μM hydrogen peroxide; read-out: % Reduction of Hydrogen Peroxide TRPA1 Activation

| SMILES | inhibition at 400 µM [%] |
| --- | --- |
| CC(C)C=C(C=O)c1ccccc1 (mixture of isomers) [4-Methyl-2-phenyl-2 Pentenal] | 54 |
| c1ccc(CCCC2CCCO2)cc1 (stereo not shown) [2-(3-Phenylpropyl) tetrahydrofuran] | 74 |
| CC1CC(O)CC(C)(C)C1 (stereo not shown) [3,3,5-Trimethylcyclohexanol] | 72 |
| CCCCCCCC1CC(C)OC1=O (stereo not shown) [3-Heptyldihydro-5-methyl-2(3H)-furanone] | 59 |
| CCCC(CCOC(C)=O)SC(C)=O (stereo not shown) [3-acetylsulfanylhexyl acetate] | 58 |
| CCCCC(=O)OC1CC2CCC1(C)C2(C)C (stereo not shown) [Bornyl Valerate] | 52 |
| CCCC1CC(=O)C=C(C)C1 (stereo not shown) [Celery Ketone, 2-Cyclohexen-1-one, 3-methyl-5-propyl-] | 56 |
| CC(=O)OCCC(C)CCC=C(C)C (stereo not shown) [Citronellyl acetate] | 70 |
| COC(=O)c1ccccc1OC [Methyl 2-methoxy-benzoate] | 48 |
| CC(O)C(=O)NCCO (stereo not shown) [N-(2-Hydroxyethyl) lactamide] | 65 |
| CC1=CC(O)CC(C)C2CC(=C(C)C)CC12 (stereo not shown) [Vetiverol, 6-Azulenol, 1,2,3,3a,4,5,6,8a-octahydro-4,8-dimethyl-2-(1-methylethylidene)-] | -34 |

Same assay, conditions: compound 100 μM against 200 μM hydrogen peroxide; Sets 1-4

| SMILES | Average Ca++ Counts [Counts] |
| --- | --- |
| CCCCCCC1OCC(C)O1 (stereo not shown) [2-hexyl-4-methyl-1,3-dioxolan] | 3376.0 |
| CCC(C)COC(=O)C(C)CC (stereo not shown) [2-methylbutyl 2-methylbutyrate] | 2685.5 |
| CC(C)CCCC(C)CCO (stereo not shown) [3,7-dimethyl-1-octanol, 95%, 3,7-dimethyl-1-octanol] | 5168.0 |
| CC1CCC(=O)C1=O (stereo not shown) [3-methyl-1,2-cyclopentanedione] | 3246.5 |
| O=Cc1ccc(O)cc1 [4-hydroxybenzaldehyde] | 3424.5 |
| CSCCC(C)=O [4-methylthio-2-butanone] | 3322.5 |
| CC(=O)c1ccc(C)cc1 [4′-methylacetophenone] | 3244.5 |
| CC(C)CCCC(=O)O [5-methylhexanoic acid] | 4747.0 |
| CCCCCC(=O)CCCCC [6-undecanone] | 3357.5 |
| C=C(C)OC(C)=O [acetic acid isopropenyl ester] | 2860.5 |
| CC(=O)C(C)O (stereo not shown) [acetoin] | 4341.5 |

Same assay, conditions: compound 100 μM against 200 μM hydrogen peroxide; Sets 1-4; read-out: % Reduction of Hydrogen Peroxide TRPA1 Activation

| SMILES | inhibition at 100 µM [%] |
| --- | --- |
| CCCCCCC1OCC(C)O1 (stereo not shown) [2-hexyl-4-methyl-1,3-dioxolan] | 52.1 |
| CCC(C)COC(=O)C(C)CC (stereo not shown) [2-methylbutyl 2-methylbutyrate] | 61.9 |
| CC(C)CCCC(C)CCO (stereo not shown) [3,7-dimethyl-1-octanol, 95%, 3,7-dimethyl-1-octanol] | 51.2 |
| CC1CCC(=O)C1=O (stereo not shown) [3-methyl-1,2-cyclopentanedione] | 53.9 |
| O=Cc1ccc(O)cc1 [4-hydroxybenzaldehyde] | 51.4 |
| CSCCC(C)=O [4-methylthio-2-butanone] | 43.5 |
| CC(=O)c1ccc(C)cc1 [4′-methylacetophenone] | 53.9 |
| CC(C)CCCC(=O)O [5-methylhexanoic acid] | 55.2 |
| CCCCCC(=O)CCCCC [6-undecanone] | 52.3 |
| C=C(C)OC(C)=O [acetic acid isopropenyl ester] | 59.4 |
| CC(=O)C(C)O (stereo not shown) [acetoin] | 59 |
